Measurements: patent US12351572B2, “Substituted 1,2,4-triazoles as TYK2 inhibitors” (Alumis Inc., priority 2018, dated 2025)

Assays:
Format in all cases: in vivo
[1] = Pharmacokinetics in C57BL/6 mice; settings: male, mouse, plasma, iv, C0, I.V. (2 mg/kg), read-out: C0 or Cmax
Description: (§1) The pharmacokinetics of test compounds were evaluated in male C57BL/6 mice, Sprague Dawley rats, Beagle dogs, and cynomolgus monkeys when administered via oral gavage and IV injection. The animals were fasted overnight before administration. Plasma samples were collected predose and at 0.5, 1, 3, 6, 9, 12, and 24 hours postdose. The samples were analyzed by LC/MS/MS and the concentration of test compound at each timepoint was determined by linear regression. Pharmacokinetic parameters were calculated from the plasma concentrations using Pheonix WinNonlin.

[2] = Pharmacokinetics in Beagle dogs; settings: dog, plasma, iv, C0, I.V. (1 mg/kg), read-out: C0 or Cmax
Description: as §1

[3] = Pharmacokinetics in Sprague Dawley rats; settings: rat, plasma, iv, C0, I.V. (1 mg/kg), read-out: C0 or Cmax
Description: as §1

[4] = Pharmacokinetics in cynomolgus monkeys; settings: cynomolgus monkey, plasma, iv, C0, I.V. (1 mg/kg), read-out: C0 or Cmax
Description: as §1

[2H]C([2H])([2H])NC(=O)c1nnc(NC(=O)C2CC2)cc1Nc1cccc(-c2ncn(C)n2)c1OC [control, BMS-986165]
Cmax [1]: 3220 ng/mL
Cmax [2]: 559 ± 34 ng/mL
Cmax [3]: 1740 ± 276 ng/mL
Cmax [4]: 1420 ± 264 ng/mL
